Reference: patent US9834535B2, “Sulfamate derivative compounds for use in treating or alleviating pain” (Bio-Pharm Solutions Co., Ltd., priority 2013, dated 2017)

Experiments:
[1] = tested on: SNL model; assay: Antiallodynic activity on Chung model (SNL, spinal nerve ligation; von Frey); format: in vivo, Sprague-Dawley rats; conditions: 0.5 h, rat, oral, read-out: SNL model: effect (%) at the concentration administered
Description: Male. Sprague-Dawley rats (200-220 g, Orient Bio, Korea) were habituated for 1 week before the experiment and allowed free access to food and water throughout the experimentation. Room temperature and humidity were maintained at 24±2° C. and 50±10%, respectively. Neuropathic surgery (SNL, Spinal nerve ligation) model was clone as described in Kim and Chung (1992). Briefly, animal under gaseous anesthesia with isoflurane a 4:4 flow ratio of NO2. The left lumber spinal nerve L5 and L6 were isolated and tightly ligated with 4-0 silk thread. The wound was treated with a gentamicin antibiotics solution (4 mg/kg, 4 ul/g, bw), and the wound muscle was closed with cat cut chrom 4/0 thread and skin was closed dafilon 4/0 tread. Sham controls were prepared in the same manner as the spinal nerves were exposed, but no ligated L5 and L6 nerves. But, vehicle controls were identical to SNL model, except for administration of vehicles.
(§1) Tactile sensitivity (Mechanical allodynia) was evaluated using von Frey monofilaments before and after treatment and animals were used withdrawal threshold value was less than 4 g. One week after surgery, SNL-operated animals (n=4˜6), sham-operated animals (n=4˜10) and vehicle-operated animals (n=4˜13) were tested for tactile sensitivity with von Frey monofilaments 3 trials in each animal. All Animals were placed in a stainless steel mashed chamber and habituated for 30 min in the test box. The tactile sensitivity for ipsilateral hind paw was measured using the up-and-down method (Dixon, 1980) with seven von Frey monofilaments (0.4, 1, 2, 4, 6, 8, and 15 g) to 3 trials. Tactile sensitivity test was followed by Dixon's method (Dixon, 1980). The 50% paw withdrawal threshold for each paw was calculated using the following formula: [Xth] log=[vFr] log+ky where [vFr] is the force of the last von Frey used, k=0.2249 which is the average interval (in log units) between the von Frey monofilaments, and y is a value that depends upon the pattern of withdrawal responses (Dixon, 1980).
All animals were fasted 18 h before the administration of the compounds. The antiallodynic effect of the compounds were evaluated at the various dose (n=5˜6), orally administrated in a volume of 5 ul/g, bw in a vehicle of 30% (v/v) PEG 400 or 20% (v/v) Tween 80 or Saline. […]
The relative values compared to the sham group (% control) were calculated and shown in Table 5, which show an antiallodynic effect of the test compounds on SNL model in rats.

[2] = tested on: CFA-induced pain model; assay: Antiallodynic activity on Complete Freund's Adjuvant (CFA)-induced inflammatory pain model (von Frey); format: in vivo, Sprague-Dawley rats; conditions: rat, intraperitoneal; for response vs control in vivo at 18 mg/kg / response vs control in vivo at 40 mg/kg / response vs control in vivo at 60 mg/kg: Rattus norvegicus, read-out: CFA model: effect (%) at the concentration administered
Description: Male, Sprague-Dawley rats (200-220 g, Nara Bio, Korea) were habituated for 1 week before surgery and allowed free access to food and water throughout the experimentation. Room temperature and humidity were maintained at 24±2° C. and 50±10%, respectively.
CFA-induced inflammatory pain was induced by the procedure of Nagakura et al. (2003) and Gregory P. et al. (2010) with minor modifications. CFA (sigma, USA) was injected in the left plantar with a 100 ul volume under gaseous anesthesia with isoflurane a 4:4 flow ratio of NO2 Sham controls were injected with 100 ul of saline and vehicle controls were identical to CFA infusion model, except for administration of vehicles.
as §1, with “treatment,” for “treatment”, “CFA-infused” for “SNL-operated”, “(n=12),” for “(n=4˜10)”, “(n=17)” for “(n=4˜13)”
[…] The test was performed peak time of efficacy (0.5 hr) after compound administration.
The relative values compared to the sham (% control) were calculated and shown in Table 4, which show an antiallodynic effect of the compound of Examples on CFA-induced pain model in rats.

CC1(C)O[C@H](c2ccccc2I)[C@@H](COS(N)(=O)=O)O1 [Example 27, ((4R,5R)-5-(2-iodophenyl)-2,2-dimethyl-1,3-dioxolan-4-yl)methyl sulfamate] was tested, and the response vs control in vivo at 50 mg/kg [1] was 17.3% and the response vs control in vivo at 18 mg/kg ([2]; ip, 0.5 h, 0.5 h) was 20.2%.
Compound Nc1ccccc1[C@@H]1OC2(CCCC2)O[C@H]1COS(N)(=O)=O [Example 72, ((2S,3S)-3-(2-aminophenyl)-1,4-dioxaspiro[4,4]nonan-2-yl)methyl sulfamate] has a response vs control in vivo at 50 mg/kg [1] of 35.1% and a response vs control in vivo at 40 mg/kg ([2]; ip, 0.5 h, 0.5 h) of 22.6%.
Nc1ccccc1[C@@H]1OC(c2ccccc2)O[C@H]1COS(N)(=O)=O (stereo partly drawn) [Example 76, ((4S,5S)-5-(2-aminophenyl)-2-phenyl-1,3-dioxolan-4-yl)methyl sulfamate] gave a response vs control in vivo at 90 mg/kg [1] of 22.9% and a response vs control in vivo at 40 mg/kg ([2]; ip, 0.5 h, 0.5 h) of 25.7%.
Compound Cc1ccccc1[C@@H]1OC(C)(C)O[C@H]1COS(N)(=O)=O [Example 92, ((4S,5S)-5-(2-methylphenyl)-2,2-dimethyl-1,3-dioxolan-4-yl)methyl sulfamate] has a response vs control in vivo at 50 mg/kg [1] of 37.3% and a response vs control in vivo at 18 mg/kg ([2]; ip, 0.5 h, 0.5 h) of 22.3%.
CC1(C)O[C@@H](COS(N)(=O)=O)[C@H](c2ccccc2)O1 [Example 106, ((4S,5S)-5-phenyl-2,2-dimethyl-1,3-dioxolan-4-yl)methyl sulfamate] gave a response vs control in vivo at 50 mg/kg [1] of 25.4% and a response vs control in vivo at 18 mg/kg ([2]; ip, 0.5 h, 0.5 h) of 23.2%.
With NS(=O)(=O)OCC[C@H]1OC2(CCCC2)O[C@@H]1Cc1ccccc1 [Example 118, 2-((2R,3R)-3-benzyl-1,4-dioxaspiro[4,4]nonan-2-yl)ethyl sulfamate] the response vs control in vivo at 90 mg/kg [1] was 38.3% and the response vs control in vivo at 40 mg/kg ([2]; ip, 0.5 h, 0.5 h) was 25%.
Work on CC1(C)O[C@H](COS(N)(=O)=O)[C@@H](Cc2ccccc2)O1 [Example 122, ((4R,5R)-5-benzyl-2,2-dimethyl-1,3-dioxolan-4-yl)methyl sulfamate] yielded a response vs control in vivo at 50 mg/kg [1] of 64.1% and a response vs control in vivo at 18 mg/kg ([2]; ip, 0.5 h, 0.5 h) of 22.3%.
Work on CC1(C)O[C@H](CCOS(N)(=O)=O)[C@@H](Cc2ccccc2Cl)O1 [Example 138, 2-((4R,5R)-5-(2-chlorobenzyl)-2,2-dimethyl-1,3-dioxolan-4-yl)ethyl sulfamate] yielded a response vs control in vivo at 90 mg/kg [1] of 71.4% and a response vs control in vivo at 40 mg/kg ([2]; ip, 0.5 h, 0.5 h) of 32.7%.
For CC1(C)O[C@H](COS(N)(=O)=O)[C@@H](Cc2ccccc2Cl)O1 [Example 146, ((4R,5R)-5-(2-chlorobenzyl)-2,2-dimethyl-1,3-dioxolan-4-yl)methyl sulfamate], the response vs control in vivo at 90 mg/kg [1] was 45.8% and the response vs control in vivo at 40 mg/kg ([2]; ip, 0.5 h, 0.5 h) was 16.5%.
Work on NS(=O)(=O)OCC[C@@H]1OC2(CCCC2)O[C@H]1c1ccccc1Cl [Example 158, 2-((2S,3S)-3-(2-chlorophenyl)-1.4-dioxaspiro[4,4]nonan-2-yl)ethyl sulfamate] yielded a response vs control in vivo at 40 mg/kg ([2]; ip, 0.5 h, 0.5 h) of 29.8%.
Compound NS(=O)(=O)OCC[C@@H]1OC2(CCCCC2)O[C@H]1c1ccccc1Cl [Example 160, 2-((2S,3S)-3-(2-chlorophenyl)-1,4-dioxaspiro[4,5]decan-2-yl)ethyl sulfamate] has a response vs control in vivo at 40 mg/kg ([2]; ip, 0.5 h, 0.5 h) of 38.4%.
Compound CC1(C)O[C@H](c2sc(Cl)nc2Cl)[C@@H](COS(N)(=O)=O)O1 [Example 163, ((4R,5S)-5-(2,4-dichlorothiazol-5-yl)-2,2-dimethyl-1,3-dioxolan-4-yl)methyl sulfamate] has a response vs control in vivo at 40 mg/kg ([2]; ip, 0.5 h, 0.5 h) of 23.1%.
With CC1(C)O[C@@H](COS(N)(=O)=O)[C@H](c2sc(Cl)nc2Cl)O1 [Example 164, ((4S,5R)-5-(2,4 dichlorothiazol-5-yl)-2,2-dimethyl-1,3-dioxolan-4-yl)methyl sulfamate] the response vs control in vivo at 60 mg/kg ([2]; ip, 0.5 h, 0.5 h) was 66.8%.
In the case of CC1(C)O[C@H](c2cnc(Cl)s2)[C@@H](COS(N)(=O)=O)O1 [Example 165, ((4R,5S)-5-(2-chlorothiazol-5-yl)-2,2-dimethyl-1,3-dioxolan-4-yl)methyl sulfamate], the ED50 ([2]; ip, von Frey, 0.5 h) is reported as > 60 mg/kg and the “CFA model: adverse observation” value ([2]; noted with ED50 >60 mg/kg) is reported as “Seizure”.
In the case of Cc1ncsc1[C@H]1OC(C)(C)O[C@@H]1COS(N)(=O)=O [Example 167, ((4R,5S)-2,2-dimethyl-5-(4-methylthiazol-5-yl)-1,3-dioxolan-4-yl)methyl sulfamate], the response vs control in vivo at 60 mg/kg ([2]; ip, 0.5 h, 0.5 h) is reported as 38.6%.
For Cc1ncsc1[C@@H]1OC(C)(C)O[C@H]1COS(N)(=O)=O [Example 168, ((4S,5R)-2,2-dimethyl-5-(4-methylthiazol-5-yl)-1,3-dioxolan-4-yl)methyl sulfamate], the response vs control in vivo at 60 mg/kg ([2]; ip, 0.5 h, 0.5 h) was 77.2%.
For Cc1nc(Cl)sc1[C@@H]1OC(C)(C)O[C@H]1COS(N)(=O)=O [Example 170, ((4S,5R)-2,2-dimethyl-5-(2-chloro-4-methylthiazol-5-yl)-1,3-dioxolan-4-yl)methyl sulfamate], the response vs control in vivo at 60 mg/kg ([2]; ip, 0.5 h, 0.5 h) was 24.2%.
CC1(C)O[C@@H](COS(N)(=O)=O)[C@H](c2ccsc2)O1 [Example 171, ((4S,5S)-2,2-dimethyl-5-(thiophen-3-yl)-1,3-dioxolan-4-yl)methyl sulfamate] gave a response vs control in vivo at 60 mg/kg ([2]; ip, 0.5 h, 0.5 h) of 29.8%.
CC1(C)O[C@@H](COS(N)(=O)=O)[C@H](c2ccc(Cl)s2)O1 [Example 172, ((4S,5R)-2,2-dimethyl-5-(5-chlorothiophen-2-yl)-1,3-dioxolan-4-yl)methyl sulfamate] showed a response vs control in vivo at 60 mg/kg ([2]; ip, 0.5 h, 0.5 h) of 35.9%.
With CC1(C)OC(COS(N)(=O)=O)C(c2ccncc2Cl)O1 (stereo not drawn) [Example 173, (5-(3-chloropyridin-4-yl)-2,2-dimethyl-1,3-dioxolan-4-yl)methyl sulfamate] the response vs control in vivo at 60 mg/kg ([2]; ip, 0.5 h, 0.5 h) was 33.9%.
In the case of CC1(C)OC(COS(N)(=O)=O)C(c2cnccc2Cl)O1 (stereo not drawn) [Example 174, (5-(4-chloropyridin-3-yl)-2,2-dimethyl-1,3-dioxolan-4-yl)methyl sulfamate], the response vs control in vivo at 60 mg/kg ([2]; ip, 0.5 h, 0.5 h) is reported as 24.7%.
CC1(C)OC(COS(N)(=O)=O)C(c2cncnc2)O1 (stereo not drawn) [Example 175, 2,2-dimethyl-5-(pyrimidin-5-yl)-1,3-dioxolan-4-yl)methyl sulfamate] was tested, and the response vs control in vivo at 60 mg/kg ([2]; ip, 0.5 h, 0.5 h) was 44.4%.
Work on CC1(C)OC(COS(N)(=O)=O)C(c2cnc(Cl)nc2)O1 (stereo not drawn) [Example 176, (2,2-dimethyl-5-(2-chloropyrimidin-5-yl)-1,3-dioxolan-4-yl)methyl sulfamate] yielded a response vs control in vivo at 60 mg/kg ([2]; ip, 0.5 h, 0.5 h) of 40%.
